Read-outs that look alike come from different tables or passages of the source.
Assays:
[1] = Host cell cytotoxicity assay (CellTiter-Glo); details: human
Description: HepG2 cells were grown in Eagle’s Minimum Essential Medium (MEM) containing 10% FBS, 1% nonessential amino acids (NEAA) and 1% penicillin/streptomycin to >50% confluence prior to harvesting. Cells were suspended in media and 3000 cells per well were added onto 384-well clear bottom plates. Prior to addition of the cell suspension, the screening compounds (250 nl) were predispensed into plates using a liquid handler. Plates were incubated for 48 h at 37°C, 5% CO2. After 48 h of incubation, plates were equilibrated at room temperature for 30 min before luminescence signal was measured using CellTiter-Glo Reagent. Plates were kept at room temperature for 10 min to stabilize the signal and then read using a ViewLux luminescence reader. The HepG2 CC50 (from the host cell cytotoxicity assays) and C. parvum mean EC50 (from parasite growth inhibition assays) values were used to calculate selectivity index.

Cryptosporidium parvum = experiment: In vitro C. parvum growth inhibition assay (Nluc reporter strain in HCT-8 cells); assay type: cell-based; details: 48 h
Description: Host intestinal epithelial adenocarcinoma (HCT-8) cells were seeded into 96-well plates and grown to 70% confluence in RPMI medium supplemented with L-glutamine, 10% fetal bovine serum (FBS), 0.1 U/mL penicillin, 0.1 μg/mL streptomycin, 0.25 μg/mL amphotericin B and 1 mM sodium pyruvate. The host cell medium was aspirated and replaced with Cryptosporidium infection media (RPMI containing 2% FBS, 0.1 U/mL penicillin, 0.1 μg/mL streptomycin and 0.25 μg/mL amphotericin B) media prior to infection. The HCT-8 cells were infected with bleached and washed Nluc expressing C. parvum oocysts (2,000 oocysts per well) to which 10 μM compounds were added and plates were incubated for 48 h at 37°C, 5% CO2 and luminescence was measured using the protocol described previously ([14], [58]). […] Negative (no drug) and positive control (10 μM nitazoxanide) wells (three replicates each) were also set-up in the same plate. After the incubation, medium was removed and 100 μL of NanoGlo lysis buffer (Promega) was added to the wells followed by incubation for 15 min at 37°C, 5% CO2. The lysate was suspended by pipetting and 100 μL of NanoGlo lysis buffer containing 1:50 of NanoGlo substrate (Promega) was added to each well. […] For the dose response assay, compounds were tested in triplicate wells in two independent experiments and percent luminescence of no drug was calculated.
EC50 values were calculated using a nonlinear regression (curve fit of log-dose versus response) in GraphPad Prism version 8.

SMILES	CC50 at 48 h [1]	inhibition at 10 µM (Cryptosporidium parvum; 10 μM, read-out: inhibition of C. parvum growth)	inhibition at 10 µM (Cryptosporidium parvum; primary screen, 10 μM compound, three technical replicates, read-out: Mean percent inhibition of C. parvum growth)
Cc1ccc(O)cc1Nc1ccnc2ccc(S(C)(=O)=O)cc12 [Compound 5]	15.8 µM	–	–
CC(=O)Oc1ccccc1C(=O)Nc1ncc([N+](=O)[O-])s1 [Nitazoxanide, nitazoxanide, reference compound]	–	> 90%	94.5%

— paper PMC9927415, “Tyrosine Kinase Inhibitors Display Potent Activity against Cryptosporidium parvum” (Microbiology Spectrum, 2022)
